According to patent US9493487B2, “3-(1H-imidazo[4,5-C]pyridin-2-YL)-1H-pyrazolo[3,4-B]pyridine and therapeutic uses thereof” (Samumed, LLC, priority 2014, dated 2016):

Assays:
[1] = system: primary human fibroblasts derived from IPF patients (LL29 cells); test: Inhibition of TGF-β1-induced fibrosis (αSMA staining) in primary human fibroblasts from IPF patients; assay type: cell-based; settings: Fibroblast, 96 h, TGF-β1 20 ng/mL, 4 days, 11-point dose-response 10 μM to 1.87 nM
Source text: The above synthesized compounds were screened using primary human fibroblasts (derived from IPF patients) treated with TGF-β1 to determine their ability to inhibit the fibrotic process.
Primary human fibroblasts derived from IPF patients (LL29 cells) [^1Xiaoqiu Liu, et. al., “Fibrotic Lung Fibroblasts Show Blunted Inhibition by cAMP Due to Deficient cAMP Response Element-Binding Protein Phosphorylation”, Journal of Pharmacology and Experimental Therapeutics (2005), 315(2), 678-687; ^2Watts, K. L., et. al., “RhoA signaling modulates cyclin D1 expression in human lung fibroblasts; implications for idiopathic pulmonary fibrosis”, Respiratory Research (2006), 7(1), 88] were obtained from American Type Culture Collection (ATCC) and expanded in F12 medium supplemented with 15% Fetal Bovine Serum and Penicillin/Streptomycin.
Each compound was dissolved in DMSO as a 10 mM stock and used to prepare compound source plates. Serial dilution (1:2, 11-point dose-response curves from 10 μM to 1.87 nM) and compound transfer was performed using the ECHO 550 (Labcyte, Sunnyvale, Calif.) into 384-well clear bottom assay plates (Greiner Bio-One) with appropriate DMSO backfill for a final DMSO concentration of 0.1%. LL29 cells were plated at 1,500 cells/well in 80 μl/well F12 medium supplemented with 1% Fetal Bovine Serum. One hour after addition of the cells, TGF-β1 (Peprotech; 20 ng/mL) was added to the plates to induce fibrosis (ref. 1 and 2 above). Wells treated with TGF-β1 and containing DMSO were used as controls. Cells were incubated at 37° C. and 5% CO2 for 4 days. Following incubation for 4 days, SYTOX green nucleic acid stain (Life Technologies [Thermo Fisher Scientific]) was added to the wells at a final concentration of 1 uM and incubated at room temperature for 30 min. Cells were then fixed using 4% formaldehyde (Electron Microscopy Sciences), washed 3 times with PBS followed by blocking and permeabilization using 3% Bovine Serum Albumin (BSA; Sigma) and 0.3% Triton X-100 (Sigma) in PBS. Cells were then stained with antibody specific to α-smooth muscle actin (αSMA; Abcam) (ref 1 and 2 above) in 3% Bovine Serum Albumin (BSA; Sigma) and 0.3% Triton X-100 (Sigma) in PBS, and incubated overnight at 4° C. Cells were then washed 3 times with PBS, followed by incubation with Alexa Flor-647 conjugated secondary antibody (Life Technologies [Thermo Fisher Scientific]) and DAPI at room temperature for 1 hour. Cells were then washed 3 times with PBS and plates were sealed for imaging. αSMA staining was imaged by excitation at 630 nm and emission at 665 nm and quantified using the Compartmental Analysis program on the CellInsight CX5 (Thermo Scientific). Dead or apoptotic cells were excluded from analysis based on positive SYTOX green staining. % of total cells positive for αSMA were counted in each well and normalized to the average of 11 wells treated with TGF-β1 on the same plate using Dotmatics' Studies Software. The normalized averages (fold change over untreated) of 3 replicate wells for each compound concentration were used to create dose-responses curves and EC50 values were calculated using non-linear regression curve fit in the Dotmatics' Studies Software. The EC50 values are reported.

[2] = system: Wnt activity (Sp5-Luc reporter, SW480 colon carcinoma cells); test: Sp5-Luc Wnt reporter gene assay in SW480 colon carcinoma cells; assay type: cell-based; settings: Homo sapiens; SW480 cells stably expressing Sp5-Luc reporter; 42 h incubation; BrightGlo luminescence normalized to DMSO
Source text: The screening assay for Wnt activity is described as follows. Reporter cell lines can be generated by stably transducing cancer cell lines (e.g., colon cancer) or primary cells (e.g., IEC-6 intestinal cells) with a lentiviral construct that includes a Wnt-responsive promoter driving expression of the firefly luciferase gene.
SW480 colon carcinoma cells were transduced with a lentiviral vector expressing luciferase with a human Sp5 promoter consisting of a sequence of eight TCF/LEF binding sites. SW480 cells stably expressing the Sp5-Luc reporter gene and a hygromycin resistance gene were selected by treatment with 150 μg/ml of hygromycin for 7 days. These stably transduced SW480 cells were expanded in cell culture and used for all further screening activities. For Sp5-Luc reporter gene assays, the cells were plated at 10,000 cells/well in 96-well plates with growth medium containing 10% fetal calf serum and incubated overnight at 37° C. and 5% CO2. Each compound was dissolved in DMSO as a 10 mM stock in standard j-vials and used to prepare compound source plates in dose-response format with 3-fold serial dilutions and a 10 mM top concentration. Compound transfer from serially diluted source plates to assay plates containing the cells was accomplished using a pintool (Multimek 96, Beckman equipped with V&P Scientific FP1S50H pins) based liquid handling protocol. This protocol used a slotted pin to transfer 50 nl of compound from a source plate well to an assay plate well containing 50 μl of cells in growth medium. […] Control wells received 50 nl of DMSO treatment for normalization and calculating IC50 values. The treated cells were incubated at 37° C. and 5% CO2 for an additional forty-two hours. Following incubation, the growth medium was removed and 50 μl of BrightGlo luminescence reagent (Promega) was added to each well of the 96-well assay plates. The plates were placed on an orbital shaker for 5 min and then luminescence was quantified on the Victor3 (Perkin Elmer) plate reader. Readings were normalized to DMSO only treated cells, and normalized activities were utilized for IC50 calculations using the dose-response log (inhibitor) vs. response-variable slope (four parameters) nonlinear regression feature available in GraphPad Prism 5.0 or 6.0.

## CN(C)c1cncc(-c2cnc3[nH]nc(-c4nc5c(-c6cccc(F)c6)nccc5[nH]4)c3c2)c1 [Compound 7, 5-(3-(4-(3-Fluorophenyl)-1H-imidazo[4,5-c]pyridin-2-yl)-1H-pyrazolo[3,4-b]pyridin-5-yl)-N,N-dimethylpyridin-3-amine]
[1]
  EC50: 0.365 µM
[2]
  IC50: 0.0353 µM

## CN(C)Cc1cncc(-c2cnc3[nH]nc(-c4nc5c(-c6cccc(F)c6)nccc5[nH]4)c3c2)c1 [Compound 13, 1-(5-(3-(4-(3-Fluorophenyl)-1H-imidazo[4,5-c]pyridin-2-yl)-1H-pyrazolo[3,4-b]pyridin-5-yl)pyridin-3-yl)-N,N-dimethylmethanamine]
[1]
  EC50: 0.03 µM
[2]
  IC50: 0.339 µM

## O=C(Nc1cncc(-c2cnc3[nH]nc(-c4nc5c(-c6cccc(F)c6)nccc5[nH]4)c3c2)c1)C1CC1 [Compound 19, N-(5-(3-(4-(3-Fluorophenyl)-1H-imidazo[4,5-c]pyridin-2-yl)-1H-pyrazolo[3,4-b]pyridin-5-yl)pyridin-3-yl)cyclopropanecarboxamide]
[1]
  EC50: 0.027 µM
[2]
  IC50: 0.005 µM

## CC(C)CC(=O)Nc1cncc(-c2cnc3[nH]nc(-c4nc5c(-c6ccc(F)cc6)nccc5[nH]4)c3c2)c1 [Compound 28, N-(5-(3-(4-(4-Fluorophenyl)-1H-imidazo[4,5-c]pyridin-2-yl)-1H-pyrazolo[3,4-b]pyridin-5-yl)pyridin-3-yl)-3-methylbutanamide]
[1]
  EC50: 0.881 µM
[2]
  IC50: 0.0377 µM

## CC(C)(C)C(=O)Nc1cncc(-c2cnc3[nH]nc(-c4nc5c(-c6ccc(F)cc6)nccc5[nH]4)c3c2)c1 [Compound 34, N-(5-(3-(4-(4-Fluorophenyl)-1H-imidazo[4,5-c]pyridin-2-yl)-1H-pyrazolo[3,4-b]pyridin-5-yl)pyridin-3-yl)pivalamide]
[1]
  EC50: 3.06 µM
[2]
  IC50: 0.152 µM

## Fc1ccc(-c2nccc3[nH]c(-c4n[nH]c5ncc(-c6cncc(CN7CCCC7)c6)cc45)nc23)cc1 [Compound 40, 3-(4-(4-Fluorophenyl)-1H-imidazo[4,5-c]pyridin-2-yl)-5-(5-(pyrrolidin-1-ylmethyl)pyridin-3-yl)-1H-pyrazolo[3,4-b]pyridine]
[1]
  EC50: ≥ 9.99 µM
[2]
  IC50: > 10 µM

## CC(C)C(=O)Nc1cncc(-c2cnc3[nH]nc(-c4nc5c(-c6ccccc6F)nccc5[nH]4)c3c2)c1 [Compound 61, N-(5-(3-(4-(2-Fluorophenyl)-1H-imidazo[4,5-c]pyridin-2-yl)-1H-pyrazolo[3,4-b]pyridin-5-yl)pyridin-3-yl)isobutyramide]
[1]
  EC50: > 10 µM
[2]
  IC50: 0.028 µM

## CC(C)(C)CC(=O)Nc1cncc(-c2cnc3[nH]nc(-c4nc5c(-c6ccccc6F)nccc5[nH]4)c3c2)c1 [Compound 68, N-(5-(3-(4-(2-Fluorophenyl)-1H-imidazo[4,5-c]pyridin-2-yl)-1H-pyrazolo[3,4-b]pyridin-5-yl)pyridin-3-yl)-3,3-dimethylbutanamide]
[1]
  EC50: 0.93 µM
[2]
  IC50: 0.0957 µM

## O=C(Nc1cncc(-c2cnc3[nH]nc(-c4nc5c(-c6ccccc6F)nccc5[nH]4)c3c2)c1)C1CCCC1 [Compound 73, N-(5-(3-(4-(2-Fluorophenyl)-1H-imidazo[4,5-c]pyridin-2-yl)-1H-pyrazolo[3,4-b]pyridin-5-yl)pyridin-3-yl)cyclopentanecarboxamide]
[1]
  EC50: 0.611 µM
[2]
  IC50: 0.0602 µM

## CC(C)C(=O)Nc1cncc(-c2cnc3[nH]nc(-c4nc5c(-c6cccnc6)nccc5[nH]4)c3c2)c1 [Compound 87, N-(5-(3-(4-(Pyridin-3-yl)-1H-imidazo[4,5-c]pyridin-2-yl)-1H-pyrazolo[3,4-b]pyridin-5-yl)pyridin-3-yl)isobutyramide]
[1]
  EC50: 0.009 µM
[2]
  IC50: > 10 µM

## CC(C)Nc1cncc(-c2cnc3[nH]nc(-c4nc5c(-c6cccnc6)nccc5[nH]4)c3c2)c1 [Compound 90, N-Isopropyl-5-(3-(4-(pyridin-3-yl)-1H-imidazo[4,5-c]pyridin-2-yl)-1H-pyrazolo[3,4-b]pyridin-5-yl)pyridin-3-amine]
[1]
  EC50: ≥ 9.99 µM
[2]
  IC50: 0.0797 µM

## c1ccc(CNCc2cncc(-c3cnc4[nH]nc(-c5nc6c(-c7cccnc7)nccc6[nH]5)c4c3)c2)cc1 [Compound 101, N-Benzyl-1-(5-(3-(4-(pyridin-3-yl)-1H-imidazo[4,5-c]pyridin-2-yl)-1H-pyrazolo[3,4-b]pyridin-5-yl)pyridin-3-yl)methanamine]
[1]
  EC50: ≥ 9.99 µM
[2]
  IC50: > 10 µM

## Cc1ccncc1-c1cnc2[nH]nc(-c3nc4c(-c5ccncc5)nccc4[nH]3)c2c1 [Compound 109, 5-(4-Methylpyridin-3-yl)-3-(4-(pyridin-4-yl)-1H-imidazo[4,5-c]pyridin-2-yl)-1H-pyrazolo[3,4-b]pyridine]
[1]
  EC50: ≥ 9.99 µM
[2]
  IC50: > 10 µM

## O=C(Cc1ccccc1)Nc1cncc(-c2cnc3[nH]nc(-c4nc5c(-c6ccncc6)nccc5[nH]4)c3c2)c1 [Compound 114, 2-Phenyl-N-(5-(3-(4-(pyridin-4-yl)-1H-imidazo[4,5-c]pyridin-2-yl)-1H-pyrazolo[3,4-b]pyridin-5-yl)pyridin-3-yl)acetamide]
[1]
  EC50: ≥ 9.99 µM
[2]
  IC50: > 10 µM

## CCCC(=O)Nc1cncc(-c2cnc3[nH]nc(-c4nc5c(-c6ccncc6)nccc5[nH]4)c3c2)c1 [Compound 121, N-(5-(3-(4-(Pyridin-4-yl)-1H-imidazo[4,5-c]pyridin-2-yl)-1H-pyrazolo[3,4-b]pyridin-5-yl)pyridin-3-yl)butyramide]
[1]
  EC50: ≥ 9.99 µM
[2]
  IC50: > 10 µM

## CCNCc1cncc(-c2cnc3[nH]nc(-c4nc5c(-c6ccccn6)nccc5[nH]4)c3c2)c1 [Compound 136, N-((5-(3-(4-(Pyridin-2-yl)-1H-imidazo[4,5-c]pyridin-2-yl)-1H-pyrazolo[3,4-b]pyridin-5-yl)pyridin-3-yl)methyl)ethanamine]
[1]
  EC50: 0.009 µM
[2]
  IC50: > 10 µM

## O=C(Nc1cncc(-c2cnc3[nH]nc(-c4nc5c(-c6ccccn6)nccc5[nH]4)c3c2)c1)c1ccccc1 [Compound 141, N-(5-(3-(4-(Pyridin-2-yl)-1H-imidazo[4,5-c]pyridin-2-yl)-1H-pyrazolo[3,4-b]pyridin-5-yl)pyridin-3-yl)benzamide]
[1]
  EC50: ≥ 9.99 µM
[2]
  IC50: > 10 µM

## CCCCC(=O)Nc1cncc(-c2cnc3[nH]nc(-c4nc5c(-c6ccccn6)nccc5[nH]4)c3c2)c1 [Compound 148, N-(5-(3-(4-(Pyridin-2-yl)-1H-imidazo[4,5-c]pyridin-2-yl)-1H-pyrazolo[3,4-b]pyridin-5-yl)pyridin-3-yl)pentanamide]
[1]
  EC50: 0.009 µM
[2]
  IC50: 6.16 µM
